Reference: patent US10202658B2, “Methods for determining hypersusceptibility of HIV-1 to non-nucleoside reverse transcriptase inhibitors” (Monogram Biosciences, Inc., priority 2005, dated 2019)

Tested on: HIV-1 clinical isolates grouped by RT mutations
Assay: Pairwise comparison of NNRTI fold change between groups of clinical isolates (Student's T-test, Bonferroni's Multiple Comparison Test)
Format: cell-based
Procedure: This example provides methods and compositions for identifying mutations that correlate with hypersusceptibility to a NNRTI. Resistance test vectors were constructed and used as described in Example 1. Resistance test vectors derived from patient samples or clones derived from the resistance test vector pools were tested in a resistance assay to determine accurately and quantitatively the relative EFV, DLV, or NVP resistance or susceptibility compared to the median observed resistance or susceptibility.
To identify mutations associated with NNRTI hypersusceptibility, the following analysis was performed. […] The TAMs referenced in. Table 1 include M41L, D67N, K70R, L210W, T215FY, and K219X, while the NAMs referenced include K65R, T69X, L74IV, V75X, and M184IV. Isolates without NRTI, NNRTI or PI mutations served as a wild type (WT) reference group. Further comparison groups comprised isolates with three TAMS including T215Y (+/−H208Y, +/−V118I) or three TAMS including K70R. Scatter plots and statistical tests (See FIGS. 1-6) were generated using Prism 4.0 (GraphPad, San Diego, Calif.)
In addition, a pairwise comparison between two sets of data was conducted using Bonferroni's Multiple Comparison Test using the Prism 4.0 software. The results of the comparison are presented in Tables 2, 3, and 4, appended to the end of this document. Samples with K65R, K65R+M184V, or 2 TAMs in combination with T215Y had over 40% with EFV FC<0.4.

CC(C)Nc1cccnc1N1CCN(C(=O)c2cc3cc(NS(C)(=O)=O)ccc3[nH]2)CC1 [DLV, delavirdine]
Mean Diff. of fold change (1 NAM vs 2 NAMs): 0.2985 | Mean Diff. of fold change (1 NAM vs 3 NAMs): 0.293 | Mean Diff. of fold change (1 NAM vs K65R): 0.3868 | Mean Diff. of fold change (1 NAM vs K65R + M184V): 0.5114 | Mean Diff. of fold change (1 NAM vs K70R_3_TAMs): −0.5755 | Mean Diff. of fold change (1 NAM vs M184V): −0.007762 | Mean Diff. of fold change (1 NAM vs T69): −0.1256 | Mean Diff. of fold change (1 NAM vs T215Y_3_TAMs): 0.6784 | Mean Diff. of fold change (1 NAM vs T215Y_3_TAMs_118): 0.6483 | Mean Diff. of fold change (1 NAM vs T215Y_3_TAMs_208): 0.7831 | Mean Diff. of fold change (1 NAM vs T215Y_3_TAMs_no118): 0.6983 | Mean Diff. of fold change (1 NAM vs T215Y_3_TAMs_no208): 0.6612 | Mean Diff. of fold change (2 NAMs vs 3 NAMs): −0.005498 | Mean Diff. of fold change (2 NAMs vs K65R): 0.08826 | Mean Diff. of fold change (2 NAMs vs K65R + M184V): 0.2128 | Mean Diff. of fold change (2 NAMs vs K70R_3_TAMs): −0.874 | Mean Diff. of fold change (2 NAMs vs M184V): −0.3063 | Mean Diff. of fold change (2 NAMs vs T69): −0.4242 | Mean Diff. of fold change (2 NAMs vs T215Y_3_TAMs): 0.3799 | Mean Diff. of fold change (2 NAMs vs T215Y_3_TAMs_118): 0.3498 | Mean Diff. of fold change (2 NAMs vs T215Y_3_TAMs_208): 0.4845 | Mean Diff. of fold change (2 NAMs vs T215Y_3_TAMs_no118): 0.3997 | Mean Diff. of fold change (2 NAMs vs T215Y_3_TAMs_no208): 0.3627 | Mean Diff. of fold change (3 NAMs vs K65R): 0.09376 | Mean Diff. of fold change (3 NAMs vs K65R + M184V): 0.2183 | Mean Diff. of fold change (3 NAMs vs K70R_3_TAMs): −0.8685 | Mean Diff. of fold change (3 NAMs vs M184V): −0.3008 | Mean Diff. of fold change (3 NAMs vs T69): −0.4187 | Mean Diff. of fold change (3 NAMs vs T215Y_3_TAMs): 0.3854 | Mean Diff. of fold change (3 NAMs vs T215Y_3_TAMs_118): 0.3553 | Mean Diff. of fold change (3 NAMs vs T215Y_3_TAMs_208): 0.49 | Mean Diff. of fold change (3 NAMs vs T215Y_3_TAMs_no118): 0.4052 | Mean Diff. of fold change (3 NAMs vs T215Y_3_TAMs_no208): 0.3682 | Mean Diff. of fold change (K65R + M184V vs K70R_3_TAMs): −1.087 | Mean Diff. of fold change (K65R + M184V vs T215Y_3_TAMs): 0.167 | Mean Diff. of fold change (K65R + M184V vs T215Y_3_TAMs_118): 0.137 | Mean Diff. of fold change (K65R + M184V vs T215Y_3_TAMs_208): 0.2717 | Mean Diff. of fold change (K65R + M184V vs T215Y_3_TAMs_no118): 0.1869 | Mean Diff. of fold change (K65R + M184V vs T215Y_3_TAMs_no208): 0.1499 | Mean Diff. of fold change (K65R vs K65R + M184V): 0.1246 | Mean Diff. of fold change (K65R vs K70R_3_TAMs): −0.9623 | Mean Diff. of fold change (K65R vs M184V): −0.3946 | Mean Diff. of fold change (K65R vs T69): −0.5124 | Mean Diff. of fold change (K65R vs T215Y_3_TAMs): 0.2916 | Mean Diff. of fold change (K65R vs T215Y_3_TAMs_118): 0.2615 | Mean Diff. of fold change (K65R vs T215Y_3_TAMs_208): 0.3963 | Mean Diff. of fold change (K65R vs T215Y_3_TAMs_no118): 0.3115 | Mean Diff. of fold change (K65R vs T215Y_3_TAMs_no208): 0.2744 | Mean Diff. of fold change (K70R_3_TAMs vs T215Y_3_TAMs_118): 1.224 | Mean Diff. of fold change (K70R_3_TAMs vs T215Y_3_TAMs_no118): 1.274 | Mean Diff. of fold change (M184V vs K65R + M184V): 0.5191 | Mean Diff. of fold change (M184V vs K70R_3_TAMs): −0.5677 | Mean Diff. of fold change (M184V vs T69): −0.1179 | Mean Diff. of fold change (M184V vs T215Y_3_TAMs): 0.6862 | Mean Diff. of fold change (M184V vs T215Y_3_TAMs_118): 0.6561 | Mean Diff. of fold change (M184V vs T215Y_3_TAMs_208): 0.7908 | Mean Diff. of fold change (M184V vs T215Y_3_TAMs_no118): 0.706 | Mean Diff. of fold change (M184V vs T215Y_3_TAMs_no208): 0.669 | Mean Diff. of fold change (T69 vs K65R + M184V): 0.637 | Mean Diff. of fold change (T69 vs K70R_3_TAMs): −0.4499 | Mean Diff. of fold change (T69 vs T215Y_3_TAMs): 0.8041 | Mean Diff. of fold change (T69 vs T215Y_3_TAMs_118): 0.774 | Mean Diff. of fold change (T69 vs T215Y_3_TAMs_208): 0.9087 | Mean Diff. of fold change (T69 vs T215Y_3_TAMs_no118): 0.8239 | Mean Diff. of fold change (T69 vs T215Y_3_TAMs_no208): 0.7869 | Mean Diff. of fold change (T215Y_3_TAMs vs K70R_3_TAMs): −1.254 | Mean Diff. of fold change (T215Y_3_TAMs vs T215Y_3_TAMs_118): −0.03008 | Mean Diff. of fold change (T215Y_3_TAMs vs T215Y_3_TAMs_208): 0.1046 | Mean Diff. of fold change (T215Y_3_TAMs vs T215Y_3_TAMs_no118): 0.01984 | Mean Diff. of fold change (T215Y_3_TAMs vs T215Y_3_TAMs_no208): −0.01718 | Mean Diff. of fold change (T215Y_3_TAMs_208 vs K70R_3_TAMs): −1.359 | Mean Diff. of fold change (T215Y_3_TAMs_208 vs T215Y_3_TAMs_118): −0.1347 | Mean Diff. of fold change (T215Y_3_TAMs_208 vs T215Y_3_TAMs_no118): −0.0848 | Mean Diff. of fold change (T215Y_3_TAMs_208 vs T215Y_3_TAMs_no208): −0.1218 | Mean Diff. of fold change (T215Y_3_TAMs_no118 vs T215Y_3_TAMs_118): −0.04992 | Mean Diff. of fold change (T215Y_3_TAMs_no208 vs K70R_3_TAMs): −1.237 | Mean Diff. of fold change (T215Y_3_TAMs_no208 vs T215Y_3_TAMs_118): −0.0129 | Mean Diff. of fold change (T215Y_3_TAMs_no208 vs T215Y_3_TAMs_no118): 0.03702 | mean fold change (FC) compared to the WT population (all groups containing NAMs or the combination of TAMs shown in Table 1, p<0.0001, Student's T-test): significantly lower | Mean Diff. of fold change (wt vs 1 NAM): 0.3819 | Mean Diff. of fold change (wt vs 2 NAMs): 0.6804 | Mean Diff. of fold change (wt vs 3 NAMs): 0.6749 | Mean Diff. of fold change (wt vs K65R): 0.7687 | Mean Diff. of fold change (wt vs K65R + M184V): 0.8932 | Mean Diff. of fold change (wt vs K70R_3_TAMs): −0.1936 | Mean Diff. of fold change (wt vs M184V): 0.3741 | Mean Diff. of fold change (wt vs T69): 0.2562 | Mean Diff. of fold change (wt vs T215Y_3_TAMs): 1.06 | Mean Diff. of fold change (wt vs T215Y_3_TAMs_118): 1.03 | Mean Diff. of fold change (wt vs T215Y_3_TAMs_208): 1.165 | Mean Diff. of fold change (wt vs T215Y_3_TAMs_no118): 1.08 | Mean Diff. of fold change (wt vs T215Y_3_TAMs_no208): 1.043
